Measured values published in patent US20250100994A1, “CDK12/13 COVALENT INHIBITORS OR PHARMACEUTICAL COMPOSITION THEREOF, AND USES THEREOF” (The Regents of the University of Michigan, priority 2023, published 2025).

Assays:
CDK12 = CDK12 (Homo sapiens (Human), UniProt Q9NYV4); experiment: LANCE Ultra kinase assay, CDK12; assay type: biochemical; details: 30 nM enzyme, 60 min pre-incubation, ULight-4E-BP1 150 nM; read-out: CDK12 IC50
Procedure: (§1) The inhibitory activities of the test compound on the kinases were evaluated by LANCE Ultra assay, which was used for detecting ATP-dependent phosphorylation of a ULight-4E-BP1 (Thr37/Thr46) substrate peptide (150 nM). In short, enzymatic reactions were performed in a reaction buffer (25 mM HEPES (pH 7.5), 10 mM MgCl2, 0.01% BSA, 0.01% Tween 20, and 1 mM DTT). The assay was performed in a 384-well plate (6 μL). A final concentration of an ATP substrate was […], and a final concentration of the ULight-4E-BP1 (Thr37/Thr46) substrate peptide was 150 nM. A final concentration of CDK9, CDK12, or CDK13 was 0.3, 30, or 30 nM, respectively. Pre-incubation of the compound and the enzyme was performed at room temperature for 60 min. The reaction was stopped by adding 10 mM EDTA and 0.15 nM Eu-labeled anti-phospho-eIF4E-binding protein 1 (Thr37/46) antibody in LANCE detection buffer after incubation at room temperature for 15, 60, or 90 min. Time-resolved fluorescence (excitation, 320 nm; emission donor, 615 nm; emission acceptor, 665 nm) was monitored using an EnVision spectrophotometer (PerkinElmer). Readings were computed as (acceptor count/donor count)×1000. IC50 values were derived by fitting a sigmoidal dose-response curve to a plot of assay readouts of inhibitor concentrations. All fittings were computed using program Prism 5.03 (GraphPad Software, San Diego, CA).

CDK13 = CDK13 (Homo sapiens (Human), UniProt Q14004); experiment: LANCE Ultra kinase assay, CDK13; assay type: biochemical; details: 30 nM enzyme, 60 min pre-incubation, ULight-4E-BP1 150 nM; read-out: CDK13 IC50
Procedure: as §1

Sequence of CDK12 (Q9NYV4 whole entry): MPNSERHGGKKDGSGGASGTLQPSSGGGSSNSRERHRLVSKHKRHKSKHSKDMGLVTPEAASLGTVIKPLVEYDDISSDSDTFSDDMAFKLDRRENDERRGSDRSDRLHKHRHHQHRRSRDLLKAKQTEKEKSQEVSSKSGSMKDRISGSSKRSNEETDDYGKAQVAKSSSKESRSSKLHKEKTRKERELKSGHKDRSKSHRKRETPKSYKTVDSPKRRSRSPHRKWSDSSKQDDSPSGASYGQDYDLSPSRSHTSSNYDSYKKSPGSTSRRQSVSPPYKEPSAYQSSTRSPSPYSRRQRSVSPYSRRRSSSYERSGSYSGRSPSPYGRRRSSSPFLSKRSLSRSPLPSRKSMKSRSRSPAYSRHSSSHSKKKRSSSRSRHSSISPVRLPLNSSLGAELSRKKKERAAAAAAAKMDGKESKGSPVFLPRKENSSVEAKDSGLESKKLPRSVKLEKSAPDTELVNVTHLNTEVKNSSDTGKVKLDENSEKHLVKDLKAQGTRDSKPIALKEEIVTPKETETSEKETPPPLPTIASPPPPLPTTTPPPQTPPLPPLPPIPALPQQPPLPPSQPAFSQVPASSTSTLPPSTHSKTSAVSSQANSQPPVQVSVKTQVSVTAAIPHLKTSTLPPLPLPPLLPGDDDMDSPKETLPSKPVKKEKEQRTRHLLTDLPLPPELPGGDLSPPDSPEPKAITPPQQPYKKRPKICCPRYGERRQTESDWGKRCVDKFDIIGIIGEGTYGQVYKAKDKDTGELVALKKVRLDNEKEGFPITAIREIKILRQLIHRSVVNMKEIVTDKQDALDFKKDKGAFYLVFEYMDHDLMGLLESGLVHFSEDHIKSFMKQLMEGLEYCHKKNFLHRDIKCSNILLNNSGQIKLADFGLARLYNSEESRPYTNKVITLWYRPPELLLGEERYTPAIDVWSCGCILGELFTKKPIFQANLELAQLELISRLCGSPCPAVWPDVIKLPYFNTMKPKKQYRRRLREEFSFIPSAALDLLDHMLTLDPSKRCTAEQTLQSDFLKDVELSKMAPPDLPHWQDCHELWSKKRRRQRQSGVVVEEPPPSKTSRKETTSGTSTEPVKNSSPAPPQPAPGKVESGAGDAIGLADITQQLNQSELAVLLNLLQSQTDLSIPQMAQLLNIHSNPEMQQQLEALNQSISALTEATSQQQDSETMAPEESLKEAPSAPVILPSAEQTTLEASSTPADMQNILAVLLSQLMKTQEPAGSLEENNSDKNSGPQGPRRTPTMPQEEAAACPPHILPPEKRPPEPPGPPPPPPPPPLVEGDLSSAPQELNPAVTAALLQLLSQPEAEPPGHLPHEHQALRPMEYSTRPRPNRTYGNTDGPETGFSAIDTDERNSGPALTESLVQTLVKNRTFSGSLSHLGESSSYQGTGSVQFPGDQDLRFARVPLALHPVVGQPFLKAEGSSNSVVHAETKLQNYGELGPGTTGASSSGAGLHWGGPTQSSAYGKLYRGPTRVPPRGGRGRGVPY
Sequence of CDK12 (O75909 whole entry partner): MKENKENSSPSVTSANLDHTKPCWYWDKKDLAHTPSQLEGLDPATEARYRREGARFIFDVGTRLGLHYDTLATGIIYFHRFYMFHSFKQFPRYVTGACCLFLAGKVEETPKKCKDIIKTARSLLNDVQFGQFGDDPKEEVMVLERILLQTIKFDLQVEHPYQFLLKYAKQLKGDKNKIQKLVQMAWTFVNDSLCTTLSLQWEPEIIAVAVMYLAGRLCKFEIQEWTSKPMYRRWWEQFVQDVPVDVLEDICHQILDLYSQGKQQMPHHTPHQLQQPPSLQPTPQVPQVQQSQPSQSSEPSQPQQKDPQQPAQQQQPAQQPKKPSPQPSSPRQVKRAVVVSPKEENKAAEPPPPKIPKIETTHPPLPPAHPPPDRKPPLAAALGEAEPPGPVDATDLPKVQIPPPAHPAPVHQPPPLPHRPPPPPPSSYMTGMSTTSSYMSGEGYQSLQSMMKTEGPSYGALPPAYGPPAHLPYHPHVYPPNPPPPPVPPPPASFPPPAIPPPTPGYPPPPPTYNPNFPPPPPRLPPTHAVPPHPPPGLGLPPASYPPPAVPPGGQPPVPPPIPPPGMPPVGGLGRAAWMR
Sequence of CDK13 (Q14004 whole entry, looked up): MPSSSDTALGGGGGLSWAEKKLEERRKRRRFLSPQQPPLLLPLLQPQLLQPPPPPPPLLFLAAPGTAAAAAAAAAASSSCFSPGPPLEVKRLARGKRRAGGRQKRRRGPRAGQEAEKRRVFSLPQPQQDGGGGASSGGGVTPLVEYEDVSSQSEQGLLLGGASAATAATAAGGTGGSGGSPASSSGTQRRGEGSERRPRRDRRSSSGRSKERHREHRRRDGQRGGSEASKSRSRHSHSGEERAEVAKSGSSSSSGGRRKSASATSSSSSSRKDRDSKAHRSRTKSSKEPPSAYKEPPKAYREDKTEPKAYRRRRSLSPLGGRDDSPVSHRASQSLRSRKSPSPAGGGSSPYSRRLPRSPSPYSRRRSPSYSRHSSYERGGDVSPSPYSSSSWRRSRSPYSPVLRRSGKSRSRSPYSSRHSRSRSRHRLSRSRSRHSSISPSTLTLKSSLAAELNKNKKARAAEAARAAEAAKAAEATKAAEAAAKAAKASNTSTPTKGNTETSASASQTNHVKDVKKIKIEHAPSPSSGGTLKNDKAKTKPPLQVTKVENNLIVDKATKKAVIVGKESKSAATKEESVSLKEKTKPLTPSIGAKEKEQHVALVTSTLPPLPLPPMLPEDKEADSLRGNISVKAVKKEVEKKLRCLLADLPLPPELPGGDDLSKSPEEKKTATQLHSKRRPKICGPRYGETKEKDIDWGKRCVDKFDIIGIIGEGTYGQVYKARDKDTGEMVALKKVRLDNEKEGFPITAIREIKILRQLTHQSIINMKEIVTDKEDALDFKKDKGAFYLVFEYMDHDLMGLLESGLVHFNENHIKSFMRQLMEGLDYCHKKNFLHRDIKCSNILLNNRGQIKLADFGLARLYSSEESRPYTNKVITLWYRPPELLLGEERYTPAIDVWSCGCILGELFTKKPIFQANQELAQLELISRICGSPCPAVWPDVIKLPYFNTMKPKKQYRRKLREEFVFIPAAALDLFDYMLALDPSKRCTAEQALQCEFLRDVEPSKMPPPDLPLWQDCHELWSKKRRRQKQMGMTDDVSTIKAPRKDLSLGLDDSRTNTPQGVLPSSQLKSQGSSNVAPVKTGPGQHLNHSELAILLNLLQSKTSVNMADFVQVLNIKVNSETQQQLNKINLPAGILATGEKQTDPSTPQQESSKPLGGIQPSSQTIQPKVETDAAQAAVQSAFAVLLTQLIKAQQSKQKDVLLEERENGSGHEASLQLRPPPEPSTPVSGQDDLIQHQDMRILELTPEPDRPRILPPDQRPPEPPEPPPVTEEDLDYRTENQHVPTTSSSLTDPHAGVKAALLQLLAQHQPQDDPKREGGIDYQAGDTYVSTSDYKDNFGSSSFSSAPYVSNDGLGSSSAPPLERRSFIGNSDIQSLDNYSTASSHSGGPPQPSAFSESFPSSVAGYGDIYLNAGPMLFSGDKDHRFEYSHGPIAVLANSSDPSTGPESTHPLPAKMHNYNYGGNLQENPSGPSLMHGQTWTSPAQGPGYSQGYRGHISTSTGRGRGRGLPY
Sequence of CDK13 (O75909 whole entry partner, looked up): as the sequence (O75909 whole entry partner) above

Compound	IC50 (CDK12) [nM]	IC50 (CDK13) [nM]
C=CC(=O)Nc1cc(N(C(=O)NCc2ccccc2)[C@H]2CC[C@H](Nc3ccc(C#N)cn3)CC2)cnc1N1CCN(C)[C@@H](C)C1 [YJZ9171, N-(5-(3-benzyl-1-((1r,4S)-4-((5-cyanopyridin-2-yl)amino)cyclohexyl)ureido)-2-((S)-3,4-dimethylpiperazin-1-yl)pyridin-3-yl)acrylamide]	< 15	15 to 50
C=CC(=O)Nc1cc(N(C(=O)N[C@@H](C)c2ccccc2)[C@H]2CC[C@H](Nc3ccc(C#N)cn3)CC2)ccc1N1CCN(C)[C@@H](C)C1 [YJZ9170, N-(5-(1-((1r,4S)-4-((5-cyanopyridin-2-yl)amino)cyclohexyl)-3-((S)-1-phenylethyl)ureido)-2-((S)-3,4-dimethylpiperazin-1-yl)phenyl)acrylamide]	15 to 50	15 to 50
C=CC(=O)Nc1cc(N(C(=O)NCc2ccccc2F)[C@H]2CC[C@H](Nc3ccc(C#N)cn3)CC2)ccc1N1CCN(C)[C@@H](C)C1 [YJZ9179, N-(5-(1-((1r,4S)-4-((5-cyanopyridin-2-yl)amino)cyclohexyl)-3-(2-fluorobenzyl)ureido)-2-((S)-3,4-dimethylpiperazin-1-yl)phenyl)acrylamide]	15 to 50	< 15
C=CC(=O)Nc1cc(N(C(=O)NCc2ccccc2)[C@H]2CC[C@H](Nc3ccc(C#N)cn3)CC2)ccc1N1CCN(C)CC1 [YJZ5114, N-(5-(3-benzyl-1-((1r,4r)-4-((5-cyanopyridin-2-yl)amino)cyclohexyl)ureido)-2-(4-methylpiperazin-1-yl)phenyl)acrylamide]	50 to 500	50 to 500
C=CC(=O)Nc1cc(N(C(=O)NCc2cccc(F)c2)[C@H]2CC[C@H](Nc3ccc(C#N)cn3)CC2)ccc1N1CCN(C)[C@@H](C)C1 [YJZ9177, N-(5-(1-((1r,4S)-4-((5-cyanopyridin-2-yl)amino)cyclohexyl)-3-(3-fluorobenzyl)ureido)-2-((S)-3,4-dimethylpiperazin-1-yl)phenyl)acrylamide]	15 to 50	< 15
C=CC(=O)Nc1cc(N(C(=O)NCc2cccnc2)[C@H]2CC[C@H](Nc3ccc(C#N)cn3)CC2)ccc1N1CCN(C)[C@@H](C)C1 [YJZ1061, N-(5-(1-((1r,4S)-4-((5-cyanopyridin-2-yl)amino)cyclohexyl)-3-(pyridin-3-ylmethyl)ureido)-2-((S)-3,4-dimethylpiperazin-1-yl)phenyl)acrylamide]	50 to 500	50 to 500
C=CC(=O)Nc1cc(N(C(=O)NCc2ccccc2Cl)[C@H]2CC[C@H](Nc3ccc(C#N)cn3)CC2)ccc1N1CCN(C)[C@@H](C)C1 [YJZ1060, N-(5-(3-(2-chlorobenzyl)-1-((1r,4S)-4-((5-cyanopyridin-2-yl)amino)cyclohexyl)ureido)-2-((S)-3,4-dimethylpiperazin-1-yl)phenyl)acrylamide]	< 15	< 15
C=CC(=O)Nc1cc(N(C(=O)NCc2ccccc2)[C@H]2CC[C@H](Nc3ccc(C#N)cn3)CC2)ccc1Br [YJZ6048, N-(5-(3-benzyl-1-((1r,4r)-4-((5-cyanopyridin-2-yl)amino)cyclohexyl)ureido)-2-bromophenyl)acrylamide]	15 to 50	< 15
C=CC(=O)Nc1cc(N(C(=O)NCC2COC2)[C@H]2CC[C@H](Nc3ccc(C#N)cn3)CC2)ccc1N1CCN(C)[C@@H](C)C1 [YJZ1031, N-(5-(1-((1r,4S)-4-((5-cyanopyridin-2-yl)amino)cyclohexyl)-3-(oxetanyl-3-ylmethyl)ureido)-2-((S)-3,4-dimethylpiperazin-1-yl)phenyl)acrylamide]	> 500	> 500
C=CC(=O)Nc1cc(N(C(=O)NCc2cnn(C)c2)[C@H]2CC[C@H](Nc3ccc(C#N)cn3)CC2)ccc1N1CCN(C)[C@@H](C)C1 [YJZ1033, N-(5-(1-((1r,4S)-4-((5-cyanopyridin-2-yl)amino)cyclohexyl)-3-((1-methyl-1H-pyrazol-4-yl)methyl)ureido)-2-((S)-3,4-dimethylpiperazin-1-yl)phenyl)acrylamide]	> 500	50 to 500
C=CC(=O)Nc1cc(N(C(=O)NCc2ccc(F)cc2)[C@H]2CC[C@H](Nc3ccc(C#N)cn3)CC2)ccc1N1CCN(C)[C@@H](C)C1 [YJZ9166, N-(5-(1-((1r,4S)-4-((5-cyanopyridin-2-yl)amino)cyclohexyl)-3-(4-fluorobenzyl)ureido)-2-((S)-3,4-dimethylpiperazin-1-yl)phenyl)acrylamide]	15 to 50	15 to 50

Other lines, results leading:

IC50 (CDK12) [nM]	IC50 (CDK13) [nM]	Compound
50 to 500	50 to 500	C=CC(=O)Nc1cc(N(C(=O)NCc2cocn2)[C@H]2CC[C@H](Nc3ccc(C#N)cn3)CC2)ccc1N1CCN(C)[C@@H](C)C1 [YJZ1063, N-(5-(1-((1r,4S)-4-((5-cyanopyridin-2-yl)amino)cyclohexyl)-3-(oxazol-4-ylmethyl)ureido)-2-((S)-3,4-dimethylpiperazin-1-yl)phenyl)acrylamide]
15 to 50	15 to 50	C=CC(=O)Nc1cc(N(C(=O)NCc2ccccc2)[C@H]2CC[C@H](Nc3ccc(Cl)cn3)CC2)ccc1N1CCN(C)[C@@H](C)C1 [YJZ1070, N-(5-(3-benzyl-1-((1r,4S)-4-((5-chloropyridin-2-yl)amino)cyclohexyl)ureido)-2-((S)-3,4-dimethylpiperazin-1-yl)phenyl)acrylamide]
15 to 50	< 15	C=CC(=O)Nc1cc(N(C(=O)NCc2ccccc2)[C@H]2CC[C@H](Nc3ccc(C(F)(F)F)cn3)CC2)ccc1N1CCN(C)[C@@H](C)C1 [YJZ1066, N-(5-(3-benzyl-1-((1r,4S)-4-((5-(trifluoromethyl)pyridin-2-yl)amino)cyclohexyl)ureido)-2-((S)-3,4-dimethylpiperazin-1-yl)phenyl)acrylamide]
50 to 500	50 to 500	C=CC(=O)Nc1cc(N(C(=O)NC2CC2)[C@H]2CC[C@H](Nc3ccc(C#N)cn3)CC2)ccc1N1CCN(C)[C@@H](C)C1 [YJZ9173, N-(5-(1-((1r,4S)-4-((5-cyanopyridin-2-yl)amino)cyclohexyl)-3-cyclopropylureido)-2-((S)-3,4-dimethylpiperazin-1-yl)phenyl)acrylamide]
50 to 500	50 to 500	C=CC(=O)Nc1cc(N(C(=O)NCC(F)(F)F)[C@H]2CC[C@H](Nc3ccc(C#N)cn3)CC2)ccc1N1CCN(C)[C@@H](C)C1 [YJZ1065, N-(5-(1-((1r,4S)-4-((5-cyanopyridin-2-yl)amino)cyclohexyl)-3-(2,2,2-trifluoroethyl)ureido)-2-((S)-3,4-dimethylpiperazin-1-yl)phenyl)acrylamide]
50 to 500	50 to 500	C=CC(=O)Nc1cc(N(C(=O)NCC2CC2)[C@H]2CC[C@H](Nc3ccc(C#N)cn3)CC2)ccc1N1CCN(C)[C@@H](C)C1 [YJZ1025, N-(5-(1-((1r,4S)-4-((5-cyanopyridin-2-yl)amino)cyclohexyl)-3-(cyclopropylmethyl)ureido)-2-((S)-3,4-dimethylpiperazin-1-yl)phenyl)acrylamide]
> 500	50 to 500	C=CC(=O)Nc1cc(N(C(=O)N[C@H](C)c2ccccc2)[C@H]2CC[C@H](Nc3ccc(C#N)cn3)CC2)ccc1N1CCN(C)[C@@H](C)C1 [YJZ9176, N-(5-(1-((1r,4R)-4-((5-cyanopyridin-2-yl)amino)cyclohexyl)-3-((R)-1-phenylethyl)ureido)-2-((S)-3,4-dimethylpiperazin-1-yl)phenyl)acrylamide]
